{"source": "paper PMC13598332", "about": "“Selective activation of tetrodotoxin-sensitive sodium channels by AaH-II drives arrhythmogenic late Na^+ current in the heart” (Europace, 2026)", "key": {"hNav1.1": {"molecular_target": "hNav1.1 (Homo sapiens, UniProt P35498)", "type": "cell-based"}, "hNav1.3": {"molecular_target": "hNav1.3 (Homo sapiens, UniProt Q9NY46)", "sequence (Q9NY46 other isoform, or with tags, fused parts or gaps)": "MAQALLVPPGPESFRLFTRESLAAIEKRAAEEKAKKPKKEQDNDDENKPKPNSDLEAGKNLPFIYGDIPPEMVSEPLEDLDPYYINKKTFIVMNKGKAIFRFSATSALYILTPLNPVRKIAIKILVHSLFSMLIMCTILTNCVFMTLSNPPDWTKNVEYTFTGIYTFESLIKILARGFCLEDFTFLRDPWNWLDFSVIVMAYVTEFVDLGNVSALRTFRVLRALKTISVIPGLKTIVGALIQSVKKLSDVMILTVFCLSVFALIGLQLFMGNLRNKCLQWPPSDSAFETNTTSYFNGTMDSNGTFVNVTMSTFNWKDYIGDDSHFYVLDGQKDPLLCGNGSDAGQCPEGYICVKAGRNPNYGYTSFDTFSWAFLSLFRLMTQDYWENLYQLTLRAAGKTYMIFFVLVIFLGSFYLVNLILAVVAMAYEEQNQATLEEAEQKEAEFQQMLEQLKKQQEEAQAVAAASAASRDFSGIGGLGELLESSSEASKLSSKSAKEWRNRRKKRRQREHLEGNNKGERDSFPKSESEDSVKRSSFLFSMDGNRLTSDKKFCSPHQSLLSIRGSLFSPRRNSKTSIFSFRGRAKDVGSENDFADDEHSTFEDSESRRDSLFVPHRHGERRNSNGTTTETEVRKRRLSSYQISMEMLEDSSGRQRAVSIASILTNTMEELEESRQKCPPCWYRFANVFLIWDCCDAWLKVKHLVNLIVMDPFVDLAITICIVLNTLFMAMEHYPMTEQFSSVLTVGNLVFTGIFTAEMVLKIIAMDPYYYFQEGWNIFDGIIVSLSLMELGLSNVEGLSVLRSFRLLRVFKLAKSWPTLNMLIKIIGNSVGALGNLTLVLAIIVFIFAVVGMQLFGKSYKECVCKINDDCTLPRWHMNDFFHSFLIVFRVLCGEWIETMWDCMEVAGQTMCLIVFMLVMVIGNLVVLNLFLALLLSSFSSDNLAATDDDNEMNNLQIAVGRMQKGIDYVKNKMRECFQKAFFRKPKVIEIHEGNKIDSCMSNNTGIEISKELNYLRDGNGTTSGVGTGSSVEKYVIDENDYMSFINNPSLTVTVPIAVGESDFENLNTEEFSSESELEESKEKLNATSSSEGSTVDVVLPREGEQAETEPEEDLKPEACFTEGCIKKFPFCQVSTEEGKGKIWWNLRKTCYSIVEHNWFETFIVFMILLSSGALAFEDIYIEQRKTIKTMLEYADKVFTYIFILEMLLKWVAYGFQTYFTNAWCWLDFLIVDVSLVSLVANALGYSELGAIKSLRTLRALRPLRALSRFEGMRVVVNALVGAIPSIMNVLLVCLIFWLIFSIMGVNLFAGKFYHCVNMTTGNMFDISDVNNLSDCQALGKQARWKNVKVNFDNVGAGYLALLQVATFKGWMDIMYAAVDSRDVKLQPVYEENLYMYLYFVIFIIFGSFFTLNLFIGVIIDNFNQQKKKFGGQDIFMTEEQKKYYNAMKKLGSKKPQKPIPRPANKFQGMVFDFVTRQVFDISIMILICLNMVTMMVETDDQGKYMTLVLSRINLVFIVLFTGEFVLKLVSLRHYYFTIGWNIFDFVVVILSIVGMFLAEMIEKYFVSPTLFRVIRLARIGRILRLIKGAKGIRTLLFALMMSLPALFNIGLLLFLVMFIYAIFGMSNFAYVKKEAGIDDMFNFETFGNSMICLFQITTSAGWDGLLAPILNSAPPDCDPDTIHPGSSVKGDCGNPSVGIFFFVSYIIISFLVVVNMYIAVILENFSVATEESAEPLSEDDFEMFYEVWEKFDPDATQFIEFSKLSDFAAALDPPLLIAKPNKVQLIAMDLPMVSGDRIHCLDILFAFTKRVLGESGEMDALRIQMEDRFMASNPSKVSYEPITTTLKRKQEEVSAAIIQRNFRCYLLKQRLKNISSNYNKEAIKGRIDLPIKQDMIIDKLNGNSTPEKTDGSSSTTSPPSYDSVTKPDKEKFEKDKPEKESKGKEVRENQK", "type": "cell-based"}, "[1]": {"test_system": "human iPS-derived ventricular cardiomyocytes", "type": "cell-based", "settings": "0.1 nM; dynamic clamp, 1.43 Hz, 35–37°C; n = 10"}, "isolated rat heart": {"test_system": "isolated rat heart", "assay": "Ex vivo cardiac electrophysiological recordings (Langendorff, MEA)", "settings": "for increase in repolarization area of ventricular local field potential: mean ± SEM", "protocol": "Eleven-week-old Wistar-Han rats were first heparinized (heparin sodium, 0.5 U/g i.p.) and then euthanized by i.p. injection of 140 mg/kg pentobarbital (Euthasol®). Hearts were quickly excised and immersed in a cold modified Krebs-Henseleit solution (in mM): 116 NaCl, 5 KCl, 1.1 MgSO4, 7 H2O, 0.35 NaH2PO4, 27 NaHCO3, 10 glucose, and pH 7.4. The aorta was cannulated, and the hearts were perfused on a Langendorff system with warm (36.5–37.5°C) and oxygenated (95% O2/5% CO2) Krebs-Henseleit solution supplemented with 1.8 mM CaCl2, 1 mM lactate, and 0.2 mM pyruvate (control solution) at a constant flow rate of 12 mL/min. Once connected to the Langendorff perfusion system, hearts were perfused with control solution for 10 min to stabilize their activities. Electrical activity of the upper part of the right ventricle was assessed using a 64-electrode array (0.2-mm electrode diameter; 0.36-mm interelectrode distance) connected to an EMS64-USB-1002 amplifier. Single-lead ECG was acquired to monitor global cardiac electrical activity. Data were sampled at 10 kHz per channel and acquired by EMapRecord5 (Mappinglab, Oxford, UK). Data were obtained at baseline (2 min before compound perfusion) and during AaH-II* perfusion for 10 min at various concentrations. Data were analysed using EMapScope5 (Mappinglab, Oxford, UK). Activation times were determined as the point of maximal negative slope. All activation times were related to the timing of the first detected waveform and then used to draw activation maps. An average of three complexes was used for activation time and conduction velocity analyses, while interbeat interval was measured as the average of 10 consecutive intervals. The index of inhomogeneity was calculated as previously described.[23] Arrhythmias were quantified over a period of 2 min in control and after peptide perfusion."}, "hNav1.7": {"molecular_target": "hNav1.7 (Homo sapiens, UniProt Q15858)", "sequence (Q15858 whole entry)": "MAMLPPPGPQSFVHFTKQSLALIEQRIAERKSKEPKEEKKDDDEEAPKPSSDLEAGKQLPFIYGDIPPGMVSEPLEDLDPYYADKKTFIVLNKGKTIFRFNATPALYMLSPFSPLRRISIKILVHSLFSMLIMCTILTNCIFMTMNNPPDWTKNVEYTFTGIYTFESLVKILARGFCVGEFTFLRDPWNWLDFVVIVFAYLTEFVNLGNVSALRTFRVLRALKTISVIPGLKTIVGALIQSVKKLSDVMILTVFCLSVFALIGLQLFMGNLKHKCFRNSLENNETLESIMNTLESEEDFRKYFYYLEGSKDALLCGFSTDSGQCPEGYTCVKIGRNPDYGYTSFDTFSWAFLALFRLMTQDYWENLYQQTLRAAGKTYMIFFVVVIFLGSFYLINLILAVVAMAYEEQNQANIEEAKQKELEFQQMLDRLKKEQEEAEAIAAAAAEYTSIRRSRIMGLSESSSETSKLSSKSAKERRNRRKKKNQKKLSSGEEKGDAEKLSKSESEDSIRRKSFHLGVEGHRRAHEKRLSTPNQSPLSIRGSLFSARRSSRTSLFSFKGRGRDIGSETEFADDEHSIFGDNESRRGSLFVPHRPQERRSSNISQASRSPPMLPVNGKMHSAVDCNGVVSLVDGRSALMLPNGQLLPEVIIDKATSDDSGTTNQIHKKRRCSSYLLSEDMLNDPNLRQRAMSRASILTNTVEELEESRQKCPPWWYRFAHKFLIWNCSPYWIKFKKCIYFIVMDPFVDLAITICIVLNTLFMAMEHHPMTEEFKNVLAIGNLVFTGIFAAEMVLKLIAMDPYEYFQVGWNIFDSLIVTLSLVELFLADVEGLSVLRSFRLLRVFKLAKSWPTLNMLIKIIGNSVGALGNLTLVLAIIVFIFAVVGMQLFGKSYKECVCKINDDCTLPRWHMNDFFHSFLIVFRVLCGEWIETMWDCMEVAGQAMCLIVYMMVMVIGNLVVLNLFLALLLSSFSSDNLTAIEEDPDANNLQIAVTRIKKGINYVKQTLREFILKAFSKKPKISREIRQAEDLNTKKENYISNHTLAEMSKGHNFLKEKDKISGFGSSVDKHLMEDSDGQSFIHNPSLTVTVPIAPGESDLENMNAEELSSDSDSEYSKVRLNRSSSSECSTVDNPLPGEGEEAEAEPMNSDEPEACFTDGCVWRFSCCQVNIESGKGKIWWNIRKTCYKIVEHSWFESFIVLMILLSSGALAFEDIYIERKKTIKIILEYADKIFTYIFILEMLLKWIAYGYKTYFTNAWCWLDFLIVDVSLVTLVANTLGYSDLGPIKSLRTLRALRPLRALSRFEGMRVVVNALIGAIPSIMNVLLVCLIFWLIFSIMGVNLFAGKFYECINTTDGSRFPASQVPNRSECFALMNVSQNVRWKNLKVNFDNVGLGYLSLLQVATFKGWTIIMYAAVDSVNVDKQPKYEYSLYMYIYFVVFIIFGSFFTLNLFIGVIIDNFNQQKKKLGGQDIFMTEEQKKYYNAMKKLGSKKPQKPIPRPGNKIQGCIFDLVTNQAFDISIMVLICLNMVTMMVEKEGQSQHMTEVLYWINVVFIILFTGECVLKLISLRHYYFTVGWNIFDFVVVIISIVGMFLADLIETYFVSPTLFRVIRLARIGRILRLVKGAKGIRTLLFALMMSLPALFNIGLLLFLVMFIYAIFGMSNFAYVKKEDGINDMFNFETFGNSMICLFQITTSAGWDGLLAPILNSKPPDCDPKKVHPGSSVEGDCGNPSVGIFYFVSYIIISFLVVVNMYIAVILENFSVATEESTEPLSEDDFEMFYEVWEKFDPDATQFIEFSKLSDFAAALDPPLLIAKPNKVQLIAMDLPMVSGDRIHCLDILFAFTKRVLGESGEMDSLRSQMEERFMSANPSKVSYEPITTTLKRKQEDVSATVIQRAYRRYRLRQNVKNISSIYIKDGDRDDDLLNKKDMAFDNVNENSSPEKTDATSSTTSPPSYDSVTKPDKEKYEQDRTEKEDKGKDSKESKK", "type": "cell-based"}, "[2]": {"test_system": "adult rat ventricular cardiomyocytes", "assay": "Calcium imaging (SCR events) in isolated rat cardiomyocytes", "type": "cell-based", "protocol": "Eleven-week-old Wistar Han rats were euthanized by intraperitoneal (i.p.) injection of a lethal dose of pentobarbital (140 mg/kg, Euthasol®). Subsequently, the hearts were quickly excised and rinsed in cold calcium-free Tyrode solution with the following composition (in mM): 118 NaCl, 4.17 KCl, 1.2 MgSO4, 1.2 KH2PO4, 21 NaHCO3, 11 glucose, and 5 taurine, at pH 7.4. The aorta was promptly cannulated, and the hearts were perfused in a retrograde fashion with warm (37–38°C) Tyrode containing 1.25 mM CaCl2 to flush the coronary arteries of blood and then with a Tyrode solution supplemented with 1 mg/mL collagenase type 2 (Worthington Biochemical Corp, Lakewood, NJ) and 0.2 U.mL^−1 protease type XIV (Sigma, Poole, UK) during 15–20 min. Once enzymatic digestion is completed, ventricles were shredded into small pieces with surgical scissors in 0.5 mM Ca^2+ Tyrode solution, filtered through a 200-µm mesh, and then resuspended in 1 mM Ca^2+ Tyrode solution for 1 h at RT. Isolated cardiomyocytes were incubated in the dark with Fura-2-AM calcium probe (2 µM in 20% v/v DMSO; Life Technologies) for 15 min. Cardiomyocytes were then loaded onto the IonOptix system (IonOptix Corporation, U.S.A.) and perfused with warm (37°C) Tyrode solution. Cardiomyocytes were stimulated at 0.5 Hz using a MyoPacer field stimulator (20 V, 7 ms) to achieve steady state. Fura-2 fluorescence (F) at 510 nm was used to measure cytoplasmic Ca^2+ concentration variation by exciting with UV light at 340 and 380 nm. Cells were paced for 1 to 2 min, ensuring stabilization of the signals, and the effects of the peptides were measured at the end of a 5 min application time. 30-s-long periods were used as the unit duration (representing 15 Ca^2+ transients) during control and after the perfusion of the compound to count the number of arrhythmogenic transients."}, "[3]": {"test_system": "adult rat ventricular myocytes", "type": "cell-based", "settings": "HP −120 mV, 1-s pulse to −20 mV"}, "[4]": {"settings": "representative traces, test 0 mV"}}, "note": "Read-outs that look alike come from different tables or passages of the source."}
{"smiles": "CC[C@H](C)[C@H](NC(=O)[C@H](Cc1ccc(O)cc1)NC(=O)CNC(=O)[C@H](CC(=O)O)NC(=O)[C@H](CCCCN)NC(=O)[C@@H](N)C(C)C)C(=O)N[C@H](C(=O)N[C@@H](CC(=O)O)C(=O)N[C@@H](CC(=O)O)C(=O)N[C@H](C(=O)N[C@@H](CC(N)=O)C(=O)N[C@H]1CSSC[C@@H](C(=O)N[C@@H](Cc2c[nH]cn2)C(N)=O)NC(=O)[C@H](CCCCN)NC(=O)CNC(=O)[C@@H]2CCCN2C(=O)CNC(=O)[C@H](CCCCN)NC(=O)[C@H]([C@@H](C)O)NC(=O)[C@H](CCCNC(=N)N)NC(=O)[C@H](C(C)C)NC(=O)[C@H](Cc2c[nH]cn2)NC(=O)[C@H](CC(=O)O)NC(=O)[C@@H]2CCCN2C(=O)[C@H](CC(C)C)NC(=O)[C@H](CCCCN)NC(=O)[C@H](Cc2ccc(O)cc2)NC(=O)[C@@H]2CSSC[C@@H]3NC(=O)[C@H](CCC(=O)O)NC(=O)[C@H](CCC(=O)O)NC(=O)[C@H](CC(N)=O)NC(=O)[C@@H]4CSSC[C@H](NC(=O)[C@H](C)NC(=O)[C@H](CC(N)=O)NC(=O)CNC(=O)[C@H](Cc5ccc(O)cc5)NC(=O)[C@@H]5CCCN5C(=O)[C@H](CO)NC(=O)[C@H](C)NC(=O)[C@H](Cc5c[nH]c6ccccc56)NC(=O)[C@H](CCC(N)=O)NC(=O)[C@H](CSSC[C@H](NC(=O)[C@H](Cc5ccccc5)NC(=O)[C@H](Cc5ccc(O)cc5)NC(=O)[C@H]([C@@H](C)O)NC1=O)C(=O)NCC(=O)N[C@@H](CCCNC(=N)N)C(=O)N[C@@H](CC(N)=O)C(=O)N[C@@H](C)C(=O)N[C@@H](Cc1ccc(O)cc1)C(=O)N4)NC(=O)[C@H](Cc1ccc(O)cc1)NC(=O)CNC(=O)[C@H](CO)NC(=O)[C@H](CCC(=O)O)NC(=O)CNC(=O)[C@H](CCCCN)NC(=O)[C@H](CC(C)C)NC(=O)[C@H](CCCCN)NC(=O)[C@H]([C@@H](C)O)NC3=O)C(=O)N[C@@H](Cc1ccc(O)cc1)C(=O)N2)C(C)C)C(C)C", "note": "[AaH-II*]", "values": [{"measurement": "INaL after 1 s depolarization", "setting": "hNav1.1; 10 nM", "value": "maintained INaL after 1 s pulse"}, {"measurement": "shift in voltage-dependence of activation", "setting": "hNav1.1; 10 nM", "value": "large AaH-II*-triggered hyperpolarizing shift in voltage-dependence of activation"}, {"measurement": "maximal INaL stimulation (maximal AUC)", "setting": "hNav1.1; highest effective AaH-II* concentration", "value": "~19", "unit": "fold"}, {"measurement": "concentration at which INaL is triggered / becomes noticeable", "setting": "hNav1.1; [4]", "value": 0.1, "unit": "nM"}, {"measurement": "INaL after 1 s depolarization", "setting": "hNav1.3; 10 nM", "value": "maintained INaL after 1 s pulse"}, {"measurement": "shift in voltage-dependence of activation", "setting": "hNav1.3; 10 nM", "value": "large AaH-II*-triggered hyperpolarizing shift in voltage-dependence of activation"}, {"measurement": "concentration at which INaL is triggered / becomes noticeable", "setting": "hNav1.3; [4]", "value": 0.1, "unit": "nM"}, {"measurement": "AP duration APD20, APD50, APD90", "setting": "[1]", "value": "increase the AP duration"}, {"measurement": "maximal diastolic potential, AP amplitude, dV/dtmax", "setting": "[1]", "value": "not significantly affected"}, {"measurement": "increase in repolarization area of ventricular local field potential", "setting": "isolated rat heart; 0.1 nM", "value": "40.3 ± 8.0", "unit": "%"}, {"measurement": "arrhythmogenic hearts (hearts with arrhythmias / hearts)", "setting": "isolated rat heart; 1 nM AaH-II*", "value": "5/7"}, {"measurement": "increase in repolarization area of ventricular local field potential", "setting": "isolated rat heart; 1 nM", "value": "140.6 ± 43.0", "unit": "%"}, {"measurement": "activation time", "setting": "isolated rat heart; 10 nM", "value": "significantly increases activation time"}, {"measurement": "arrhythmogenic hearts (hearts with arrhythmias / hearts)", "setting": "isolated rat heart; 10 nM AaH-II*", "value": "6/7"}, {"measurement": "ventricular bradycardia (rhythm reduction)", "setting": "isolated rat heart; 10 nM, MEA on right ventricle, 10 min perfusion", "value": 1.9, "unit": "fold"}, {"measurement": "cardiac conduction in the right ventricle", "setting": "isolated rat heart; 0.1 and 1 nM", "value": "do not affect conduction"}, {"measurement": "ventricular interbeat interval", "setting": "isolated rat heart; 0.1 and 1 nM, MEA on right ventricle, 10 min perfusion", "value": "no effect on the interbeat interval"}, {"measurement": "INaL after 1 s depolarization", "setting": "hNav1.7; 10 nM", "value": "lacked sufficient INaL at 1 s depolarization"}, {"measurement": "shift in voltage-dependence of activation", "setting": "hNav1.7; 10 nM", "value": "AaH-II*-mediated shift in voltage-dependence of activation"}, {"measurement": "concentration at which INaL is triggered / becomes noticeable", "setting": "hNav1.7; [4]", "value": 1, "unit": "nM"}, {"measurement": "average frequency of SCR events", "setting": "[2]; 0.1 nM AaH-II*", "value": 14, "unit": "SCR/min"}, {"measurement": "cells presenting SCR events (SCR cells / cells)", "setting": "[2]; 0.1 nM peptide, 0.5 Hz pacing, 37°C, 5 min application", "value": "13 out of 23"}, {"measurement": "calcium transient amplitude and time to peak", "setting": "[2]; 1 or 3 nM AaH-II*", "value": "slightly reduce the amplitude of the calcium transients and slow the time to peak"}, {"measurement": "AUC and INaL at 1 s depolarization", "setting": "[3]; 0.1 nM, n = 6 cardiomyocytes", "value": "half of the cells responded with an increased AUC and INaL"}, {"measurement": "peak current amplitude", "setting": "[3]; 0.1 nM, n = 6 cardiomyocytes", "value": "None of the cells witnessed an increase in peak current amplitude"}, {"measurement": "AUC and INaL at 1 s depolarization", "setting": "[3]; 10 nM", "value": "significant increase in AUC and INaL in all cells recorded"}]}
